Tests used:
[1] = molecular target: FABLE; assay: fluorescence titration, single-site binding model; design: species or system synthetic construct
[2] = molecular target: FABLE; assay: fluorescence titration, global single-site fit; format: binding, synthetic construct

Compound | Kd [1] [µM] | Kd [2] [µM]
CCN(CC)c1ccc2c(C(F)(F)F)cc(=O)oc2c1 [Cou481] | 5.8 ± 0.7 | 
CN(C)c1ccc2c(C(F)(F)F)cc(=O)oc2c1 [Cou485, 7-(dimethylamino)-4-(trifluoromethyl)coumarin] |  | 27.8 ± 1
O=c1cc(C(F)(F)F)c2cc3c4c(c2o1)CCCN4CCC3 [Cou540a] | 2 ± 0.1 | 
